# Reference: ChEMBL document CHEMBL3414474, “Design and synthesis of piperidine derivatives as novel human heat shock protein 70 inhibitors for the treatment of drug-resistant tumors” (Eur J Med Chem, 2015)
# Calls of active or inactive are those of the source. The calls are words filed in the database; no cut-off is given here.
# Key:
# [1] = Growth inhibition of human SK/LapR1.0 cells at 5 uM incubated for 72 hrs by ATP detection based luminescent assay; format: functional; settings: read-out: GI
# [2] = Binding affinity to human HSP70 at 25 degC by surface plasmon resonance assay
# [3] = Growth inhibition of human BT/LapR1.0 cells at 5 uM incubated for 72 hrs by ATP detection based luminescent assay; format: functional; settings: read-out: GI
# Homo sapiens = species on record: Homo sapiens; assay: Inhibition of HSP70 (unknown origin) at 200 uM pre-incubated for 30 mins followed by ATP addiction and measured after 3 hrs by malachite green reagent based colorimetric assay
# MDA-MB-453 = assay: Growth inhibition of human MDA-MB-453 cells at 5 uM incubated for 72 hrs by ATP detection based luminescent assay; format: functional; settings: MDA-MB-453, 72 h, read-out: GI
# [4] = Growth inhibition of human SKBR3 cells at 5 uM incubated for 72 hrs by ATP detection based luminescent assay; format: functional; settings: SK-BR-3, 72 h, read-out: GI
# [5] = Growth inhibition of human BT474 cells at 5 uM incubated for 72 hrs by ATP detection based luminescent assay; format: functional; settings: BT-474, 72 h, read-out: GI
# MDA-MB-361 = assay: Growth inhibition of human MDA-MB-361 cells at 5 uM incubated for 72 hrs by ATP detection based luminescent assay; format: functional; settings: MDA-MB-361, 72 h, read-out: GI
# BGC-823 = assay: Growth inhibition of human BGC823 cells at 0.016 to 4 uM incubated for 72 hrs by ATP detection based luminescent assay; format: functional, cell-based
# Huh-7 = assay: Growth inhibition of human HuH7 cells at 0.016 to 4 uM incubated for 72 hrs by ATP detection based luminescent assay; format: functional, cell-based
# HT-29 = assay: Growth inhibition of human HT-29 cells at 0.016 to 4 uM incubated for 72 hrs by ATP detection based luminescent assay; format: functional, cell-based
# [6] = Growth inhibition of human WI38 cells at 0.016 to 4 uM incubated for 72 hrs by ATP detection based luminescent assay; format: cell-based; settings: wi-38, 72 h
# MRC5 = assay: Growth inhibition of human MRC5 cells at 0.016 to 4 uM incubated for 72 hrs by ATP detection based luminescent assay; format: cell-based; settings: mrc5, 72 h
# HepG2 = assay: Growth inhibition of human HepG2 cells at 0.016 to 4 uM incubated for 72 hrs by ATP detection based luminescent assay; format: functional, cell-based
# [7] = Growth inhibition of human BT474 cells incubated for 72 hrs by ATP detection based luminescent assay; format: functional, cell-based; settings: BT-474, 72 h
# NCI-H460 = assay: Growth inhibition of human H460 cells at 0.016 to 4 uM incubated for 72 hrs by ATP detection based luminescent assay; format: functional, cell-based
# MIA PaCa-2 = assay: Growth inhibition of human MIAPaCa2 cells at 0.016 to 4 uM incubated for 72 hrs by ATP detection based luminescent assay; format: functional, cell-based
# NCI-N87 = assay: Growth inhibition of human NCI-N87 cells at 0.016 to 4 uM incubated for 72 hrs by ATP detection based luminescent assay; format: functional, cell-based
# A549 = assay: Growth inhibition of human A549 cells at 0.016 to 4 uM incubated for 72 hrs by ATP detection based luminescent assay; format: functional, cell-based
# ASPC1 = assay: Growth inhibition of human AsPC1 cells at 0.016 to 4 uM incubated for 72 hrs by ATP detection based luminescent assay; format: functional, cell-based
# [8] = Growth inhibition of human BT/LapR1.0 cells incubated for 72 hrs by ATP detection based luminescent assay; format: functional
# COLO 205 = assay: Growth inhibition of human COLO205 cells at 0.016 to 4 uM incubated for 72 hrs by ATP detection based luminescent assay; format: functional, cell-based
# Mus musculus [9] = assay: Acute toxicity in female KM mouse assessed as mouse mortality at 1296 mg/kg dosed as single oral gavage measured during day 1 to day 14 post dose; format: organism-based; parameters: dose 1296 mg/kg, route oral; settings: in vivo
# Mus musculus [10] = assay: Acute toxicity in female KM mouse assessed as mouse mortality at 1555 mg/kg dosed as single oral gavage measured after 5 mins during day 1 to day 14 post dose; format: organism-based; parameters: dose 1555 mg/kg, route oral; settings: in vivo
# Mus musculus [11] = assay: Acute toxicity in male KM mouse assessed as mouse mortality at 1555 mg/kg dosed as single oral gavage measured after 5 mins during day 1 to day 14 post dose; format: organism-based; parameters: dose 1555 mg/kg, route oral; settings: in vivo
# Mus musculus [12] = assay: Acute toxicity in female KM mouse assessed as mouse mortality at 520 mg/kg dosed as single oral gavage measured during day 1 to day 14 post dose; format: organism-based; parameters: dose 520 mg/kg, route oral; settings: in vivo
# Mus musculus [13] = assay: Acute toxicity in female KM mouse assessed as induction of organ abnormalities mortality at 520 to 1555 mg/kg dosed as single oral gavage measured during day 1 to day 14 post dose; format: organism-based; parameters: dose 520-1555 mg/kg, route oral; settings: in vivo
# Mus musculus [14] = assay: Acute toxicity in male KM mouse assessed as induction of organ abnormalities mortality at 520 to 1555 mg/kg dosed as single oral gavage measured during day 1 to day 14 post dose; format: organism-based; parameters: dose 520-1555 mg/kg, route oral; settings: in vivo
# Mus musculus [15] = assay: Acute toxicity in female KM mouse assessed as mouse mortality at 625 mg/kg dosed as single oral gavage measured during day 1 to day 14 post dose; format: organism-based; parameters: dose 625 mg/kg, route oral; settings: in vivo
# Mus musculus [16] = assay: Acute toxicity in male KM mouse assessed as mouse mortality at 1080 mg/kg dosed as single oral gavage measured during day 1 to day 14 post dose; format: organism-based; parameters: dose 1080 mg/kg, route oral; settings: in vivo
# Mus musculus [17] = assay: Acute toxicity in male KM mouse assessed as mouse mortality at 520 mg/kg dosed as single oral gavage measured during day 1 to day 14 post dose; format: organism-based; parameters: dose 520 mg/kg, route oral; settings: in vivo
smiles,measurement,setting,value
CSc1ncc(CN2CCC(N(C)Cc3cccc(Cl)c3)CC2)s1,inhibition of growth at 5 µM,[1],7.3%
same,Kd,[2],245 nM
CSc1nccc(N2CCC(N(C)Cc3ccccc3C#N)CC2)n1,inhibition of growth at 5 µM,[3],68.1%
same,inhibition of growth at 5 µM,[1],80.7%
same,inhibition,Homo sapiens,16.7%
same,inhibition of growth at 5 µM,MDA-MB-453,68.7%
same,inhibition of growth at 5 µM,[4],87.6%
same,inhibition of growth at 5 µM,[5],74.2%
same,inhibition of growth at 5 µM,MDA-MB-361,64.1%
CSc1ncc(CN2CCC(N(C)Cc3ccc(C)cc3)CC2)s1,inhibition,Homo sapiens,10.6%
same,Kd,[2],200 nM
COc1nccc(N2CCC(N(C)Cc3ccc(F)cc3)CC2)n1,inhibition of growth at 5 µM,[1],9%
same,Kd,[2],281 nM
CSc1nccc(N2CCC(N(C)Cc3ccc(Cl)cc3Cl)CC2)n1,growth inhibition (GI),BGC-823,Active
same,growth inhibition (GI),Huh-7,Active
same,growth inhibition (GI),HT-29,Active
same,growth inhibition (GI),[6],Non-toxic
same,inhibition,Homo sapiens,8.28%
same,growth inhibition (GI),MRC5,Non-toxic
same,growth inhibition (GI),HepG2,Active
same,IC50,[7],1620 nM
same,growth inhibition (GI),NCI-H460,Active
same,growth inhibition (GI),MIA PaCa-2,Active
same,growth inhibition (GI),NCI-N87,Active
same,growth inhibition (GI),A549,Active
same,growth inhibition (GI),ASPC1,Active
same,IC50,[8],1680 nM
same,growth inhibition (GI),COLO 205,Active
CSc1nccc(N2CCC(N(C)Cc3c(F)cccc3Cl)CC2)n1,growth inhibition (GI),BGC-823,Active
same,growth inhibition (GI),Huh-7,Active
same,growth inhibition (GI),HT-29,Active
same,growth inhibition (GI),[6],Non-toxic
same,inhibition,Homo sapiens,20.4%
same,growth inhibition (GI),MRC5,Non-toxic
same,growth inhibition (GI),HepG2,Active
same,IC50,[7],1040 nM
same,growth inhibition (GI),NCI-H460,Active
same,growth inhibition (GI),MIA PaCa-2,Active
same,growth inhibition (GI),NCI-N87,Active
same,growth inhibition (GI),A549,Active
same,growth inhibition (GI),ASPC1,Active
same,IC50,[8],940 nM
same,growth inhibition (GI),COLO 205,Active
CSc1ncc(CN2CCC(N(C)Cc3ccc(Cl)cc3Cl)CC2)s1,inhibition,Homo sapiens,6.21%
same,inhibition of growth at 5 µM,[5],70%
CSc1nccc(N2CCC(N(C)Cc3ccccc3Cl)CC2)n1,growth inhibition (GI),BGC-823,Active
same,inhibition of growth at 5 µM,[3],17.5%
same,growth inhibition (GI),Huh-7,Active
same,growth inhibition (GI),HT-29,Active
same,growth inhibition (GI),[6],Non-toxic
same,inhibition of growth at 5 µM,[1],34.2%
same,inhibition,Homo sapiens,11.6%
same,growth inhibition (GI),MRC5,Non-toxic
same,inhibition of growth at 5 µM,MDA-MB-453,45.3%
same,growth inhibition (GI),HepG2,Active
same,IC50,[7],1990 nM
same,growth inhibition (GI),NCI-H460,Active
same,growth inhibition (GI),MIA PaCa-2,Active
same,growth inhibition (GI),NCI-N87,Active
same,growth inhibition (GI),A549,Active
same,growth inhibition (GI),ASPC1,Active
same,inhibition of growth at 5 µM,[4],22.2%
same,inhibition of growth at 5 µM,[5],21.3%
same,inhibition of growth at 5 µM,MDA-MB-361,36.2%
same,IC50,[8],1700 nM
same,growth inhibition (GI),COLO 205,Active
COc1nccc(N2CCC(N(C)Cc3ccccc3Cl)CC2)n1,inhibition of growth at 5 µM,[3],28.6%
same,inhibition of growth at 5 µM,[1],35.8%
same,inhibition,Homo sapiens,6.11%
same,inhibition of growth at 5 µM,MDA-MB-453,60.8%
same,inhibition of growth at 5 µM,[4],41.4%
same,inhibition of growth at 5 µM,[5],36.7%
same,inhibition of growth at 5 µM,MDA-MB-361,45.1%
CSc1nccc(N2CCC(N(C)Cc3ccc(C#N)cc3)CC2)n1,growth inhibition (GI),BGC-823,Active
same,Activity,Mus musculus [9],Toxic
same,Activity,Mus musculus [10],Toxic
same,Activity,Mus musculus [11],Toxic
same,Activity,Mus musculus [12],Non-toxic
same,inhibition of growth at 5 µM,[3],76.2%
same,growth inhibition (GI),Huh-7,Active
same,growth inhibition (GI),HT-29,Active
same,growth inhibition (GI),[6],Non-toxic
same,Activity,Mus musculus [13],Non-toxic
same,inhibition of growth at 5 µM,[1],86.1%
same,inhibition,Homo sapiens,8.14%
same,growth inhibition (GI),MRC5,Non-toxic
same,inhibition of growth at 5 µM,MDA-MB-453,82.4%
same,growth inhibition (GI),HepG2,Active
same,IC50,[7],1410 nM
same,growth inhibition (GI),NCI-H460,Active
same,Activity,Mus musculus [14],Non-toxic
same,Activity,Mus musculus [15],Non-toxic
same,growth inhibition (GI),MIA PaCa-2,Active
same,growth inhibition (GI),NCI-N87,Active
same,growth inhibition (GI),A549,Active
same,Activity,Mus musculus [16],Toxic
same,growth inhibition (GI),ASPC1,Active
same,inhibition of growth at 5 µM,[4],83.4%
same,inhibition of growth at 5 µM,[5],75.5%
same,Kd,[2],246 nM
same,inhibition of growth at 5 µM,MDA-MB-361,46.9%
same,IC50,[8],1470 nM
same,Activity,Mus musculus [17],Non-toxic
same,growth inhibition (GI),COLO 205,Active
CSc1nccc(N2CCC(N(C)Cc3c(Cl)cccc3Cl)CC2)n1,growth inhibition (GI),BGC-823,Active
same,inhibition of growth at 5 µM,[3],70%
same,growth inhibition (GI),Huh-7,Active
same,growth inhibition (GI),HT-29,Active
same,growth inhibition (GI),[6],Non-toxic
same,inhibition of growth at 5 µM,[1],71%
same,inhibition,Homo sapiens,12.8%
same,growth inhibition (GI),MRC5,Non-toxic
same,inhibition of growth at 5 µM,MDA-MB-453,79.2%
same,growth inhibition (GI),HepG2,Active
same,IC50,[7],780 nM
same,growth inhibition (GI),NCI-H460,Active
same,growth inhibition (GI),MIA PaCa-2,Active
same,growth inhibition (GI),NCI-N87,Active
same,growth inhibition (GI),A549,Active
same,growth inhibition (GI),ASPC1,Active
same,inhibition of growth at 5 µM,[4],85.9%
same,inhibition of growth at 5 µM,[5],73.1%
same,inhibition of growth at 5 µM,MDA-MB-361,53.2%
same,IC50,[8],700 nM
same,growth inhibition (GI),COLO 205,Active
CCOc1ncc(CN2CCC(N(C)Cc3ccc(C#N)cc3)CC2)s1,inhibition of growth at 5 µM,[1],6.7%
same,inhibition,Homo sapiens,5.49%
CSc1nccc(N2CCC(N(C)Cc3ccc(F)cc3)CC2)n1,inhibition,Homo sapiens,7.73%
same,Kd,[2],204 nM
same,inhibition of growth at 5 µM,MDA-MB-361,46%
CN(Cc1ccc(C#N)cc1)C1CCN(Cc2cnc(Cl)s2)CC1,inhibition of growth at 5 µM,[1],7.5%
same,inhibition,Homo sapiens,11.3%
N#Cc1ccc(COC[C@H]2O[C@@H](n3c(NCc4ccc(Cl)c(Cl)c4)nc4c(N)ncnc43)[C@H](O)[C@@H]2O)cc1,inhibition,Homo sapiens,43%
same,Kd,[2],206 nM
CCOc1ncc(CN2CCC(N(C)Cc3ccc(Cl)cc3Cl)CC2)s1,inhibition of growth at 5 µM,[1],12%
same,inhibition,Homo sapiens,4.5%
